Assay results as given in US5985937A, “Use of 2,4-distributed phenol derivatives as 5-lipoxygenase inhibitors” (priority 1994, dated 1999).
Entries after “also recorded” stand apart in the source; their conditions may differ.

Key:
[1] = tested on: tendonitis; experiment: treatment of horses with tendonitis; assay type: in vivo, horse; conditions: 15 mg/day intraarticular infiltration
Protocol: Twenty five horses suffering from tendonitis, with claudication of the corresponding tendon, were treated with 15 mg/day via intraarticular infiltration of Bobel-24.

[2] = tested on: rheumatoid arthritis, hip dysplasia, equine cauda, deforming spondolitis or coxarthrosis; experiment: treatment of dogs with articular or musculoskeletal diseases; assay type: in vivo, dog; conditions: twenty dogs, oral 1-3 mg/kg.day
[3] = tested on: cyclooxygenase; conditions: in words; cited from earlier work
[4] = tested on: feline asthma; experiment: treatment of cats with feline asthma; assay type: in vivo, cat; conditions: 5 mg/day, cream applied to the leg and licked
[5] = tested on: rats; experiment: chronic toxicity in rats; assay type: in vivo, rat; conditions: 350 mg/kg.day, 6 months; hematological, biochemical, anatomy-pathological
[6] = biological target: T1, 5-lipoxygenase (5-LO) (Homo sapiens, UniProt P09917); experiment: 5-LO inhibiting activity in human polymorphonuclear leukocytes ([14C]-arachidonic acid, A23187; HPLC of eicosanoids); assay type: cell-based
T1 construct: endogenous in cells; host or cells: human polymorphonuclear leukocytes from donor blood
T1 sequence (P09917 1-674): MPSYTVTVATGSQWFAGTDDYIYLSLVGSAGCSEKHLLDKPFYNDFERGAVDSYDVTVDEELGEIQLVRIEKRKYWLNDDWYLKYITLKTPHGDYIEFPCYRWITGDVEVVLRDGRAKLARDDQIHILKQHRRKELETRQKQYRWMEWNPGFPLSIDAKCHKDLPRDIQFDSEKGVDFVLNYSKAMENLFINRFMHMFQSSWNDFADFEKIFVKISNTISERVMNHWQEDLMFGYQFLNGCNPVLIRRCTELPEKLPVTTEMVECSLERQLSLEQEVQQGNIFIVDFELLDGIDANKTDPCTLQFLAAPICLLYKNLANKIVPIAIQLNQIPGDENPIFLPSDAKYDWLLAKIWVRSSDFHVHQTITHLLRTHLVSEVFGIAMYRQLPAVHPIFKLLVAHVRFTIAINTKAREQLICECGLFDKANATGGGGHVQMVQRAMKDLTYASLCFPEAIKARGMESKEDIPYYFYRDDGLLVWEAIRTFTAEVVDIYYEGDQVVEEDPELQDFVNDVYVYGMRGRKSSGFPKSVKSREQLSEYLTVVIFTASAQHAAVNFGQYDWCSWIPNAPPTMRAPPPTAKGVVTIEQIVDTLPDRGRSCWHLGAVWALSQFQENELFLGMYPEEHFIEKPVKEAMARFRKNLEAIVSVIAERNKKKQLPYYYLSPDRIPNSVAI
Protocol: In order to show the 5-LO inhibiting activity of the products of the present invention, a specific test based on human polymorphonuclear leukocytes is chosen.
5-LO Inhibiting Activity in Polymorphonuclear Leukocytes
Blood was obtained from donors which had not received medication during the ten days previous to the extraction. The blood was treated with an anticoagulant (ACD-A) and was centrifuged at 200 g during 12 min at room temperature, separating the supernatant. A solution of Dextran T-500 in physiological serum was added to the pellet, in order to obtain a final concentration of 0.6% w/v, and was allowed to sediment during 40 min. The supernatant was centrifuged at 180 g during 10 min at room temperature. The pellet was resuspended in 5 ml of Hank's buffer, pH 7.4. After the addition of 3 ml of Lymphoprep, the suspension was centrifuged at 450 g during 30 min, and the layers of supernatant were discarded. The next step was the lysis of the erythrocytes present by adding 2 ml of a saline solution. The resulting volume was adjusted to 10 ml with Hank's buffer, pH 7.4. The solution was centrifuged during 10 min at 180 g; the supernatant was discarded and the resulting pellet was resuspended in 1-2 ml of Hank's buffer, pH 7.4. The cellular density was determined using a haemocytometer using the procedure of microcollection Unopette to determine the levels of platelet contamination. Cellular density was adjusted to 2×10^7 cells/ml with Hank's buffer, pH 7.4 and CaCl2 was added to a final concentration of 1.5 mM.
Aliquots (0.5 ml) of the polymorphonuclear leukocytes suspensions, obtained as described in part (a), were incubated during 5 min at 37° C. in the absence (control) and in the presence of three different concentrations of each drug. Afterwards an ethanol solution of [^14 C]-arachidonic acid and A23187 ionophore was added to obtain a final concentration of 10 and 5 μM, respectively. After 5 min of incubation the reaction was stopped by addition of 0.5 ml of ice-cold ethanol. Samples were centrifuged during 2 min at 1500 g, and the supernatants were kept at -80° C. until analyzed. Controls were carried out using the polymorphonuclear leukocyte suspensions aliquots in the presence of the solvent (DMSO) only.
The analysis of the products from the transformation of arachidonic acid through the action of the lipoxygenase (these products being the eicosanoids) was carried out using high pressure liquid chromatography (HPLC), in a reverse phase column (Ultrasphere-ODS, Beckman), injecting 500 μl of the supernatants obtained from the incubations. Elution was carried out using an isocratic mix of mathanol:water:triethylamine:trifluoroacetic acid, 75:25:0.05:0.10, with a flux of 1 ml/min. Detection was carried out with a radioactivity detector with a liquid scintillation cell on-line coupled with the column.

[7] = acute toxicity in Sprague-Dawley rats; conditions: rat, in vivo, po
[8] = tested on: herpes simplex; experiment: test for antiviral activity in vitro
Description: The 2,4-disubstituted phenol derivatives of the present invention are anti-herpetic agents in vivo, since they eliminate the symptoms of patients suffering from different types of herpes simplex (genital herpes, herpes of mouth and lips, recurrent herpes), and of patients suffering from herpes zoster. There is no relapse after leaving the treatment. The products are active both intramuscularly and topically, the first via being preferred.
A total of 25 patients with symptoms of different herpes simplex (genital, buccal or reincident) were treated with 15 mg/day of Bobel-24, intramuscularly, during a month, with the following results: with the ten patients of genital herpes simplex, the results was excellent in 7 cases, good in 2 and regular in 1; of the twelve with buccal herpes simplex it was excellent in 9 cases, good in 2 and regular in 1; of the 3 with reincident herpes it was excellent in 2 of the cases and good in 1. […] The case of genital herpes which resulted "regular" was an obese and diabetic […], and although there was an improvement there was also reincidency. Independently an test for antiviral activity in vitro resulted negative.

**Q.** For `Oc1c(I)cc(I)cc1I` [Bobel-24, 2,4,6-triiodophenol], which “outcome in the rest of the cases” value ([1]; horses, 15 days) is on record?
**A.** the claudication disappeared within the same period of time, but an inflammatory ring persisted around the tendon

**Q.** What about the “cases in which the process was totally reduced in 15 days” value ([1]; of twenty five horses) of the same compound?
**A.** 17 cases

**Q.** What about the response [2] of the same compound?
**A.** very good response within 1 or 2 weeks

**Q.** And the cyclooxygenase inhibiting activity [3]?
**A.** some cyclooxygenase inhibiting activity

**Q.** And the “results in feline asthma” value [4]?
**A.** satisfactory results in many cases

**Q.** What about the “chronic toxicity in rats” value [5] of the same compound?
**A.** not observed

**Q.** And the IC50 [6]?
**A.** 10 µM

**Q.** And the “products derived from 5-LO biosynthesis (chromatogram)” value ([6]; 25 μM, arachidonic acid 10 μM, FIG. 2)?
**A.** practically complete disappearance of the products derived from 5-LO biosynthesis

**Q.** What about the “15-HETE and 12-HETE formation” value ([6]; 25 μM, arachidonic acid 10 μM, due to contaminating platelets) of the same compound?
**A.** increment in 15-HETE and 12-HETE

**Q.** And the “concentration of biosynthesis products versus concentration of the drug” value ([6]; LTB4, 6-trans-LTB4, 5-HETE, 20-OH-LTB4, FIGS. 3 and 4)?
**A.** decreased in approximately linear with the concentration of the drug used

**Q.** What about the “concentration required for a given inhibition relative to benoxaprofen or ketaconozale” value ([6]; ratio from IC50) of the same compound?
**A.** approximately one tenth; also recorded: ten times smaller

**Q.** What about the inhibition at 25 µM ([6]; read-out: 5-LO inhibitory activity, approximate inhibition percentage) of the same compound?
**A.** 100%

**Q.** And the “gradient of decrease of 5-LO products with concentration, compared with the other two drugs” value ([6]; versus benoxaprofen and ketoconazole, FIGS. 3 and 4)?
**A.** gradients were greater

**Q.** And the LD50 [7]?
**A.** 1500 mg/kg

**Q.** And the “antiviral activity in vitro” value [8]?
**A.** negative
